Laboratory results from patent publication US20030064434A1, “Novel G Protein-coupled receptor, GAVE1” (Aventis Pharmaceuticals, Inc., priority 2001, published 2003).

Columns and labels:
GAVE1 (Homo sapiens) = assay: FLIPR assay, change in fluorescence of GAVE1 expressing CHO cells; assay type: cell-based; conditions: CHO cells expressing GAVE1, increasing amounts of ligand; untransformed CHO cells show control level
Source text: To screen for agonists of human GAVE1, hGAVE1 is artificially coupled to a Gq signaling package. Activation of the Gq mechanism stimulates the release of Ca^2+ from sarcoplasmic reticulum vesicles within the cell. The Ca^2+ is released into the cytoplasm where it can be detected using Ca^2+ chelating dyes. A Fluorometric Imaging Plate Reader or FLIPR® apparatus (Molecular Devices) is used to monitor any resulting changes in fluorescence. The activity of an agonist is reflected by an increase in fluorescence.
CHO-K1 cells expressing hGAVE1 are pre-engineered to express an indiscriminate form of Gq protein (Gα16). […]
A compound library containing possible agonists will be tested at 10 μM concentration in physiological salt buffer. Changes in fluorescence are measured for 10 seconds prior to compound addition. After the addition of the compound, fluorescence is measured every second for the first minute followed by exposures taken every six seconds for a total experimental analysis time of three minutes. […] The maximum fluorescence changes for the first 80 scans is recorded as a measure of agonist activity and compared to the maximum fluorescence change induced by 10 μM ATP (Sigma A9062).

[1] = tested on: GAVE1 expression in rat cardiac myocytes; assay: Northern blot of GAVE1 RNA levels in cardiomyocytes exposed to phenylephrine; assay type: cell-based; conditions: rat cardiac myocytes stimulated 48 hours with 10^-5 M phenylephrine; compared to control (untreated) or vehicle-treated myocytes
Procedure: FIG. 7 is a computer representation of a Northern blot depicting GAVE1 RNA levels of cardiomyocytes expressing GAVE1 exposed to medium, vehicle and vehicle containing phenylephrine.
Northern blot analysis is performed on RNA derived from several human tissue samples to determine whether the tissues express the hGAVE1 receptor gene. The probe used is P^32-labeled hGAVE1 cDNA.
P32-labeled hGAVE1 cDNA is prepared as follows. Twenty-five ng hGAVE1 cDNA prepared as described above is resuspended to 45 μl of 10 mM Tris-HCl, pH 7.5; 1 mM EDTA in a microfuge tube and heated at 95° C. for 5 minutes. The tube then is chilled on ice for another 5 minutes. Following chilling, the mixture contained in the tube is resuspended with the 45 μl GAVE1 cDNA and buffer as described above and mixed with RTS Rad Prime Mix (supplied with the RTS Rad Prime DNA-labeling System) (Life Technologies, Catalog No. 10387-017). Five μl of P^32-labeled α-dCTP, specific activity: 3000 Ci/mM, (Amersham, AA0005) is added while mixing gently but thoroughly. The resulting mixture is incubated at 37° C. for 10 minutes. Incubation is stopped by the addition of 5 μl of 0.2 M EDTA, pH 8.0. Incorporation of the radioactive alpha-dCTP into the hGAVE1 cDNA is evaluated by taking a 5 μl aliquot of the mixture and counting the radioactivity. […]

GAVE1 (Homo sapiens), sequence (P21453 whole entry): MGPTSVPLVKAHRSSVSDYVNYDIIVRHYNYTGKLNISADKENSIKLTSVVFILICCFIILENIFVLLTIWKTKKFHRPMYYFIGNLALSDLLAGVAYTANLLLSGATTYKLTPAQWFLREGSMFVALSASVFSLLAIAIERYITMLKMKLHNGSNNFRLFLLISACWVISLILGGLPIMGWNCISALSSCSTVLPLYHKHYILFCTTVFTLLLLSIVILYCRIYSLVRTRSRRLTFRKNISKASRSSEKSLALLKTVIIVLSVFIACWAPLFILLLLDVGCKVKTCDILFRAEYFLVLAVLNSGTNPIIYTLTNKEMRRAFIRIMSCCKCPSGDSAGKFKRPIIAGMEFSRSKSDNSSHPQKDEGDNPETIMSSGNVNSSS

Row | Structure (SMILES) | change in fluorescence (GAVE1 activity) (GAVE1 (Homo sapiens)) | level of GAVE1 expression [1]
1 | CCCCCCCCCCCCC/C=C/[C@@H](O)[C@@H](N)COP(=O)(O)O [S1P, sphingosine-1-phosphate] | positive correlation of activity with increasing amounts of ligand | –
2 | CNC[C@H](O)c1cccc(O)c1 [phenylephrine] | – | up-regulated several-fold
